The text below walks through data of PMC10517462, “Small molecule targeting of the p38/Mk2 stress signaling pathways to improve cancer treatment” (BMC Cancer, 2023).

For experiment [1], the system named is NCI-H69 cells. Description: FACS-based (DRAQ7) viability assay. It counts as cell-based, human. The method, then:
[…] Etoposide, SB203580 and MK2.III were all dissolved in 0.2% of DMSO before use. Cells treated only with the carrier molecule DMSO (0.2%) served as a control.
Viability analysis was performed by staining with the […], stoichiometric DNA stain DRAQ7 (640 or 633 nm excitation and 670 nm emission; Biostatus Limited). After 48-h treatment with DNA damaging agents and/or inhibitors, cells were washed once with RPMI 1640 and resuspended in 1 ml culture media at a concentration of less than 5 × 10^5/ ml. Cells were stained with 20 µM of DRAQ7 and incubated at 37 °C for 10 min before FACS Calibur cytometer analysis. Fluorescent signals were amplified using linear mode. Cell cycle analysis was performed either by staining DRAQ7 or Propidium Iodide (PI). Cells were stained with 20 µM of DRAQ7 and incubated at 37 °C for 10 min before analysis on a FACSCalibur cytometer. Propidium Iodide (PI, excited with 488 nm laser, collected with 585/52 bandpass filter) was used in the large-scale experiments. Samples were then fixed with 70% EtOH following the viability assay and stored at 4 °C overnight before the experiment. After fixation with 70% EtOH (added drop-wise) for 24 h, samples were centrifuged into the pellet and then washed twice with ice-cold PBS. The supernatant was discarded and pellets were resuspended in 100 µl of RNase A (100 µg/ml) and 400 µl of PI ([…] in PBS). Analysis of flow cytometry data was performed using FlowJo software. Untreated, unstained cells were used as a negative control to determine the location of viable cells on the dot plots. Events below a threshold size were interpreted as cellular debris and were removed from the dataset, leaving a whole cell population.

The subject of experiment [2] is SW480 colorectal cancer cell line. Description: CCK8 cell viability assay, SW480. Format: cell-based, human. Particulars: etoposide 150 µM alone, 24 h. The method, then:
(§1) To assess the effect of MK2.III kinase inhibitor and the etoposide (VP-16) on the viability of different cancer cell lines, cells were seeded in 96-well plates in a concentration of 5000 cells per well. After 12 h, etoposide and 1 μM MK2.III diluted in culture media were added into the wells for 24 h. NCI-H69 cells were exposed to a series of etoposide concentrations from 20 μM to 150 μM. MDA-MB-231, SW 620, and SW 480 cell lines were incubated with 150 μM etoposide. After treatment, 10 μL of the CCK-8 reagent (96992, Sigma) was added to each well for 1 h followed by optical density measurement at 450 nm using hybrid plate reader Synergy H1.
(In general: Formazan colour is commonly taken as a measure of viable cells.)

In experiment [3] the test system is NCI-H69 cells. The experiment can be described thus: CCK8-based cell viability assay, NCI-H69. Also on record: species or system human. Conditions: 24 h. The protocol:
as §1

Experiment [4] deals with NCI-H69 cells. The experiment can be described thus: FACS-based cell cycle analysis. Also on record: species or system human. Conditions: single treatment, increasing dose. The protocol: The cells were grown in 12 well plates (Scientific Laboratory Supplies Limited, UK) in RPMI 1640 (Gibco, UK) supplemented with 10% FBS (Autogen Bioclear, UK) and 10,000 U/ml penicillin and 10 mg/ml streptomycin (Sigma, UK) at 37 °C under 5% CO2 and treated with 10, 20, 50, 100 and 150 µM of DNA damaging agent etoposide (VP-16) (Sigma, UK) in the presence or absence of p38MAPK inhibitor SB203580 (Tocris Chemical Co., UK) or MK2 inhibitor MK2.III (Merck, UK) in concentrations of 0, 0.3125, 0.625, 1.25, 2.5, and 5.0 µM. Etoposide, SB203580 and MK2.III were all dissolved in 0.2% of DMSO before use. Cells treated only with the carrier molecule DMSO (0.2%) served as a control.
Viability analysis was performed by staining with the […], stoichiometric DNA stain DRAQ7 (640 or 633 nm excitation and 670 nm emission; Biostatus Limited). After 48-h treatment with DNA damaging agents and/or inhibitors, cells were washed once with RPMI 1640 and resuspended in 1 ml culture media at a concentration of less than 5 × 10^5/ ml. Cells were stained with 20 µM of DRAQ7 and incubated at 37 °C for 10 min before FACS Calibur cytometer analysis. Fluorescent signals were amplified using linear mode. Cell cycle analysis was performed either by staining DRAQ7 or Propidium Iodide (PI). Cells were stained with 20 µM of DRAQ7 and incubated at 37 °C for 10 min before analysis on a FACSCalibur cytometer. […]

The subject of experiment [5] is SW620 colorectal cancer cell line. The experiment can be described thus: CCK8 cell viability assay, SW620. It counts as cell-based, human. Conditions: MK2.III 1 µM or etoposide 150 µM alone, 24 h. The protocol: as §1
In a further experiment the test system is NCI-H69 xenograft. The experiment can be described thus: Tumor (xenograft) suppression with combination chemotherapy in SCID mice. It counts as in vivo. Particulars: for Tumor Volume (mm^3) median (25th and 75th quartile): VP-16 12 mg/kg. The protocol: To establish the most suitable xenograft model for the main experiment we used two mouse lines – BALB/c Nude and SCID (both female, 6 weeks, n = 20, Charles River). Both mouse lines were injected with NCI-H69 cancer cells (xenograft). Before injection, cells were grown at 37 °C in RPMI-1640 medium containing 10% FBS and pen/strep. Cells were mixed with Matrigel (1:1) and depending on the group 5 × 10^6 or 10 × 10^6 cells were injected into a mouse subcutaneously along the spine to the level of the left scapula. Mice were divided into 4 groups: (1) 5 × 10^6 NCI-H69 SCID (n = 5); (2) 5 × 10^6 NCI-H69 Nude (n = 5); (3) 10 × 10^6 NCI-H69 SCID (n = 5); and (4) 10 × 10^6 NCI-H69 Nude (n = 5).
The main experiment (injection of the drugs) took place after the tumor growth was established. The tumor growth in mice following the injection of cells was monitored twice a week and upon reaching the volume of ~ 100 mm^3, animals were randomized into 5 groups (12 female SCID mice in each group). The drug treatment was performed as follows: the first group was a control and received a placebo in the form of PBS (tumor volume 95 ± 38 mm^3); the second group received 12 mg/kg of Etoposide (tumor volume 101 ± 51 mm^3); the third group was injected with 4 mg/kg of MK2.III (tumor volume 105 ± 44 mm^3); fourth and fifth groups were injected with 12 mg/kg of Etoposide and 4 mg/kg or 2 mg/kg of MK2.III (tumor volumes 112 ± 57 and 107 ± 49 mm^3 respectively). Drugs were injected intraperitoneally daily. Etoposide was injected 3 days after the randomization into groups and MK2.III was administered for 28 days. Tumor growth/suppression was measured using calipers every 3–4 days for the duration of the 28-day treatment and the tumor volume was calculated as follows:[…],
Antitumor properties of drugs in the test group were determined based on the slowing of the tumor growth or tumor volume compared with the control group receiving PBS. Animal welfare was monitored throughout the study period to ensure that animals in distress were euthanized by carbon dioxide asphyxiation. All the animals were also euthanized by carbon dioxide asphyxiation following the completion of the study.
Descriptive statistics were used to summarize the tumor size and data reported as medians and 25th and 75th quartiles. Wilcoxon sum rank test was used to investigate the effects of the treatments on tumor growth. […] Statistical analyses were performed on the SigmaPlot 11.0 software.

Experiment [6] concerns MDA-MB-231 breast cancer cell line. The experiment can be described thus: CCK8 cell viability assay, MDA-MB-231. Format: cell-based, human. Particulars: MK2.III 1 µM or etoposide 150 µM alone, 24 h. The protocol:
as §1

Like-named read-outs stand apart in the source and are kept apart here.

For the compound `COc1cc([C@@H]2c3cc4c(cc3[C@@H](O[C@@H]3O[C@@H]5CO[C@@H](C)O[C@H]5[C@H](O)[C@H]3O)[C@H]3COC(=O)[C@H]23)OCO4)cc(OC)c1O` [VP-16 (Etoposide), etoposide], the viability at 10 µM with NCI-H69 cells [1] (Homo sapiens, NCI-H69, Table 1 dose response, agent alone 10 µM, 48 h, read-out: Viable cells (%)) stood at 75.7%. The viability at 20 µM in the experiment on NCI-H69 cells [1] (Homo sapiens, NCI-H69, Table 1 dose response, agent alone 20 µM, 48 h, read-out: Viable cells (%)) came to 76.8%; in the experiment on NCI-H69 cells [1] (Homo sapiens, NCI-H69, Table 2, VP-16 20 µM, alone or with MK2.III 1.0 µM or SB203580 2.5 µM, read-out: Viable cells (%)) it was 57.3%. Further, the viability at 50 µM in the experiment with NCI-H69 cells [1] (Homo sapiens, NCI-H69, Table 1 dose response, agent alone 50 µM, 48 h, read-out: Viable cells (%)) was determined as 65.2%; in the experiment with NCI-H69 cells [1] (Homo sapiens, NCI-H69, Table 2, VP-16 50 µM, alone or with MK2.III 1.0 µM or SB203580 2.5 µM, read-out: Viable cells (%)) it was 46.4%. In addition, the viability at 100 µM in the experiment with NCI-H69 cells [1] (Homo sapiens, NCI-H69, Table 1 dose response, agent alone 100 µM, 48 h, read-out: Viable cells (%)) is 61.3%; in the experiment on NCI-H69 cells [1] (Homo sapiens, NCI-H69, Table 2, VP-16 100 µM, alone or with MK2.III 1.0 µM or SB203580 2.5 µM, read-out: Viable cells (%)) it was 45.4%. Moreover, the viability at 150 µM with NCI-H69 cells [1] (Homo sapiens, NCI-H69, Table 1 dose response, agent alone 150 µM, 48 h, read-out: Viable cells (%)) amounted to 55.4%; in the experiment with NCI-H69 cells [1] (Homo sapiens, NCI-H69, Table 2, VP-16 150 µM, alone or with MK2.III 1.0 µM or SB203580 2.5 µM, read-out: Viable cells (%)) it was 37.5%. The “Decrease of viability by single agent” value is 65% in experiment [2] and 50% in experiment [5]. Also, the “Percentage of surviving cells” value with NCI-H69 cells [3] (etoposide 20 µM) was 72%; in the experiment on NCI-H69 cells [3] (etoposide 150 µM) it was 36%. Besides, in the experiment with NCI-H69 cells [4], the “Effect on cell cycle profile, single agent” value was “G2 cell cycle arrest”. Moreover, the “Difference in tumor size versus control” value in the experiment on NCI-H69 xenograft (at any checkpoint, etoposide 12 mg/kg, MK2.III 4 mg/kg, or etoposide + MK2.III 2 mg/kg) is “no significant difference”. Further, the “Tumor Volume (mm^3) median (25th and 75th quartile)” value with NCI-H69 xenograft (day 11 upon treatment, MK2.III 4 mg/kg IP daily) is on record as 556(360;839) mm^3; in the experiment with NCI-H69 xenograft (day 18 upon treatment, MK2.III 4 mg/kg IP daily), 1219 (995;1387)^*** mm^3; with NCI-H69 xenograft (day -1 upon treatment (baseline), MK2.III 4 mg/kg IP), 93.5 (66;125) mm^3. In addition, in experiment [6], the “Effect of single agent on viability” value is “did not affect the viability”.
Turning to `C[S+]([O-])c1ccc(-c2nc(-c3ccncc3)c(-c3ccc(F)cc3)[nH]2)cc1` (stereo not shown) [SB203580], the viability at 0.321 µM with NCI-H69 cells [1] (Homo sapiens, NCI-H69, Table 1 dose response, agent alone 0.321 µM (lowest dose), 48 h, read-out: Viable cells (%)) was determined as 89%. Besides, the viability at 0.626 µM in the experiment with NCI-H69 cells [1] (Homo sapiens, NCI-H69, Table 1 dose response, agent alone 0.626 µM, 48 h, read-out: Viable cells (%)) turned out to be 89.8%. For the same compound, the viability at 1.25 µM with NCI-H69 cells [1] (Homo sapiens, NCI-H69, Table 1 dose response, agent alone 1.25 µM, 48 h, read-out: Viable cells (%)) came to 89%. The viability at 2.5 µM in the experiment with NCI-H69 cells [1] (Homo sapiens, NCI-H69, Table 1 dose response, agent alone 2.5 µM, 48 h, read-out: Viable cells (%)) worked out at 89.4%. In addition, in the experiment on NCI-H69 cells [1] (Homo sapiens, NCI-H69, Table 1 dose response, agent alone 5.0 µM (highest dose), 48 h, read-out: Viable cells (%)), the viability at 5 µM came to 85.1%. In addition, in the experiment with NCI-H69 cells [1] (inhibitor alone at 2.5 µM), the “Effect on NCI-H69 cell viability compared to the DMSO control” value is “did not affect”.
